Read-outs that look alike come from different tables or passages of the source.
Legend:
[1] = molecular target: T1, HMG-CoA Reductase (Rattus norvegicus, UniProt P51639); test: biochemical; settings: method of J. Biol. Chem. Vol. 234, page 2835 (1959); read-out: HMG-CoA Reductase Inhibitory Activity IC50
T1 sequence (P51639 1-887): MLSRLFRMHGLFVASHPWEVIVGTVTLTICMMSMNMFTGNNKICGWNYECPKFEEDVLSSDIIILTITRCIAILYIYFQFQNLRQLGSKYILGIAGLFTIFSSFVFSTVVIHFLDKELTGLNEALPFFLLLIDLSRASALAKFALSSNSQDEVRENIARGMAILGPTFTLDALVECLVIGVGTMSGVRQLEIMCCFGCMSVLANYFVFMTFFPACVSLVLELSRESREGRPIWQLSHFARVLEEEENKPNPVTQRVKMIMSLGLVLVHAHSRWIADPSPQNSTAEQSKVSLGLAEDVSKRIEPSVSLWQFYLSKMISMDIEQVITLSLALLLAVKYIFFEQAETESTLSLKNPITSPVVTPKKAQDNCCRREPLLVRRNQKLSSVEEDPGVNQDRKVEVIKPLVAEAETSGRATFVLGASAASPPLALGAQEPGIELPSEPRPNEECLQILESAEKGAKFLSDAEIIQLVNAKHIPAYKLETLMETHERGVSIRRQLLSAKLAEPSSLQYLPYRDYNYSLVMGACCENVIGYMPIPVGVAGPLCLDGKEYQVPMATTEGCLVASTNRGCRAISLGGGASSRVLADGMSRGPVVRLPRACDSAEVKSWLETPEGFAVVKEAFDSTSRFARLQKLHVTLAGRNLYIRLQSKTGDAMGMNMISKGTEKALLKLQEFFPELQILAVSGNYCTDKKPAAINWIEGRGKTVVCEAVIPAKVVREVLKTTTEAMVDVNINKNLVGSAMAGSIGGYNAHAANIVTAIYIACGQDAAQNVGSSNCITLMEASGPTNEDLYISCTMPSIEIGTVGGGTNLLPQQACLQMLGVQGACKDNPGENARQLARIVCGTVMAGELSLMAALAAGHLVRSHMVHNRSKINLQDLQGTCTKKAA
Procedure: Test 1Determination of Inhibitory Activity on HMG-CoA Reductase
The inhibitory effect on HMG-CoA Reductase of each of representative examples of the 4-fluorobiphenyl derivatives prepared in the above-discussed examples was determined in accordance with the method described in Journal of Biological Chemistry (J. Biol. Chem.) Vol. 234, page 2835 (1959), and IC50 values were obtained.

[2] = system: biosynthesis of sterol; test: Determination of Inhibition of Sterol Synthesis (liver, after oral administration to rats); type: in vivo, SD rats; settings: Rattus norvegicus, 2 h, read-out: Inhibition of Sterol Synthesis
Procedure: Test 2 Determination of Inhibition of Sterol Synthesis
Representative compounds (0.3 mg/5ml/kg) suspended in a 5% arabic gum solution were orally given to SD rats weighing 150 to 200 g. One hour later, ^14 C-acetic acid (100 μCi/kg) was intraperitoneally injected, and furthermore one hour later, liver was removed to determine the inhibitory activity of each of the compounds on the biosynthesis of sterol in accordance with the method described in European Journal of Biochemistry (Eur. J. Biochem.) Vol.77, page 31 (1977).

Compound	IC50 [1]	inhibition in vivo at 0.3 mg/kg ([2]; po)	inhibition in vivo at 0.3 mg/kg ([2]; 0.3 mg/5ml/kg oral in 5% arabic gum, SD rats, 14C-acetic acid (100 μCi/kg) i.p. 1 h later, liver removed 1 h after that)
COc1c(Cl)cc(C(C)C)c(/C=C/C(O)CC(O)CC(=O)O)c1-c1ccc(F)cc1 (centres unmarked)	18.7 nM	71%	
COCCOCCOc1cc(C(C)C)c(/C=C/C(O)CC(O)CC(=O)O)c(-c2ccc(F)cc2)c1OC (centres unmarked)	26.4 nM	62%	
COCCOCCOc1c(OC)cc(C(C)C)c(/C=C/C(O)CC(O)CC(=O)O)c1-c1ccc(F)cc1 (centres unmarked)	9.43 nM	69%	
COc1cc(C(C)C)c(/C=C/C(O)CC(O)CC(=O)O)c(-c2ccc(F)cc2)c1OC (centres unmarked)	5.43 nM	71%	
CCC(C)(C)C(=O)O[C@H]1C[C@@H](C)C=C2C=C[C@H](C)[C@H](CC[C@@H]3C[C@@H](O)CC(=O)O3)[C@H]21 [Simvastatin, reference compound]			24%
COCCOc1cc(C(C)C)c(/C=C/C(O)CC(O)CC(=O)O)c(-c2ccc(F)cc2)c1OC (centres unmarked)	16.1 nM	71%	
COc1c(C)cc(C(C)C)c(/C=C/C(O)CC(O)CC(=O)O)c1-c1ccc(F)cc1 (centres unmarked)	16.6 nM	65%	
COCCOc1c(OC)cc(C(C)C)c(/C=C/C(O)CC(O)CC(=O)O)c1-c1ccc(F)cc1 (centres unmarked)	25.6 nM	60%	
COc1c(OCCO)cc(C(C)C)c(/C=C/C(O)CC(O)CC(=O)O)c1-c1ccc(F)cc1 (centres unmarked)	20.4 nM	61%	

— patent US5523460A, “4-fluorobiphenyl derivatives” (Fujirebio Inc., priority 1993, dated 1996)
